Measurements taken from ChEMBL document CHEMBL4033791, “Creation of a Novel Class of Potent and Selective MutT Homologue 1 (MTH1) Inhibitors Using Fragment-Based Screening and Structure-Based Drug Design” (J Med Chem, 2018).
In brackets after ≈: the same amount, converted by molar mass. Activity calls are given as the source filed them. No cut-off for these calls is given here.

Experiments:
[1] = Solubility of the compound in buffer
[2] = Apparent permeability across apical to basolateral side in human Caco2 cells at 10 uM after 60 mins by LC-MS/MS analysis; conditions: Caco-2
[3] = (§1) Intrinsic clearance in mouse liver microsomes at […] preincubated for 5 mins followed by NADPH addition measured by LC-MS/MS analysis; format: ADME, microsome; conditions: liver microsomes, read-out: CLH
[4] = Efflux ratio of permeability in human Caco2 cells at 10 uM after 60 mins by LC-MS/MS analysis; conditions: Caco-2
[5] = Drug metabolism in mouse liver microsomes at […] preincubated for 5 mins followed by NADPH addition measured after 30 mins by LC-MS/MS analysis; format: ADME, microsome; conditions: read-out: Drug metabolism
[6] = Apparent permeability across basolateral to apical side in human Caco2 cells at 10 uM after 60 mins by LC-MS/MS analysis; conditions: Caco-2
[7] = biological target: Oxidized purine nucleoside triphosphate hydrolase (Homo sapiens) (UniProt P36639)
[8] = Efflux ratio of apparent permeability in human Caco2 cells at 2 uM after 2 hrs by LC-MS/MS analysis; conditions: Caco-2
[9] = Apparent permeability across apical to basolateral side in human Caco2 cells at 2 uM after 2 hrs by LC-MS/MS analysis; format: ADME, cell-based; conditions: Caco-2
[10] = Apparent permeability across basolateral to apical side in human Caco2 cells at 2 uM after 2 hrs by LC-MS/MS analysis; format: ADME, cell-based; conditions: Caco-2
Liver = assay: as §1; format: ADME, microsome; conditions: microsomes, 1000 µM
[11] = biological target: Oxidized purine nucleoside triphosphate hydrolase (Homo sapiens) (UniProt P36639); assay: Inhibition of human full length MTH1 at 20 uM using 8-Oxo-2-dGTP as substrate preincubated for 15 mins followed substrate addition measured after 1 hr by PPilight pyrophosphate-detection based assay

solubility [1] | Papp A→B at 1 h, 10 µM [2] | microsomal CLint at 1000 µM [3] | efflux ratio at 1 h, 10 µM [4] | metabolised at 0.5 h [5] | Papp B→A at 1 h, 10 µM [6] | Structure (SMILES) | also measured
50 µM (≈ 14.8 µg/mL) |  |  |  |  |  | Clc1cccc(-c2ccnc3[nH]c(-c4cnco4)cc23)c1 | 
10 µM (≈ 2.49 µg/mL) |  |  |  |  |  | c1ccc2c(c1)CCN(c1ccnc3[nH]ccc13)C2 | 
250 µM (≈ 59.1 µg/mL) |  |  |  |  |  | c1cnc2c(c1)CCN2c1ccnc2[nH]ccc12 | 
2000 µM (≈ 390 µg/mL) |  |  |  |  |  | c1cncc(-c2ccnc3[nH]ccc23)c1 | ΔTm [7]: 8.2 °C
250 µM (≈ 65.8 µg/mL) | 69 ×10⁻⁶ cm/s | 244 µL/min/mg | 0.7 | 97% | 46 ×10⁻⁶ cm/s | c1ccc(C2CCCN2c2ccnc3[nH]ccc23)cc1 (centres undefined) | 
50 µM (≈ 12.1 µg/mL) |  |  |  |  |  | Cc1cc2c(-c3cccc(Cl)c3)ccnc2[nH]1 | 
100 µM (≈ 27.2 µg/mL) |  |  |  |  |  | NC(=O)c1cc2c(-c3cccc(Cl)c3)ccnc2[nH]1 | 
1000 µM (≈ 252 µg/mL) |  |  |  |  |  | CNC(=O)c1cc2c(-c3cccnc3)ccnc2[nH]1 | ΔTm [7]: 14.4 °C
100 µM (≈ 23 µg/mL) |  |  |  |  |  | Clc1cccc(-c2ccnc3[nH]ncc23)c1 | 
250 µM (≈ 62.8 µg/mL) | 39 ×10⁻⁶ cm/s |  | 0.9 | 100% | 35 ×10⁻⁶ cm/s | c1ccc2c(c1)OCCN2c1ccnc2[nH]ccc12 | microsomal intrinsic clearance (Liver): Unstable
10 µM (≈ 2.59 µg/mL) |  |  |  |  |  | OCc1cc2c(-c3cccc(Cl)c3)ccnc2[nH]1 | 
250 µM (≈ 57.2 µg/mL) |  |  |  |  |  | Clc1cccc(-c2ccnc3[nH]ccc23)c1 | 
250 µM (≈ 63.4 µg/mL) |  |  |  |  |  | N#Cc1cc2c(-c3cccc(Cl)c3)ccnc2[nH]1 | 
500 µM (≈ 117 µg/mL) |  |  |  |  |  | c1cc(-c2cnc3[nH]ccc3c2)c2cc[nH]c2n1 | ΔTm [7]: 7.9 °C

Continued, compound first:

Structure (SMILES) | solubility [1] | Papp A→B at 1 h, 10 µM [2] | microsomal CLint at 1000 µM [3] | efflux ratio at 1 h, 10 µM [4] | metabolised at 0.5 h [5] | Papp B→A at 1 h, 10 µM [6] | also measured
CCNC(=O)c1cc2c(N3CCCC3c3cccnc3)ccnc2[nH]1 (centres undefined) | 500 µM (≈ 168 µg/mL) | 4 ×10⁻⁶ cm/s | 49 µL/min/mg | 8.3 | 52% | 31 ×10⁻⁶ cm/s | 
O=C(NC1CC1)c1cc2c(-c3cccc(Cl)c3)ccnc2[nH]1 | 100 µM (≈ 31.2 µg/mL) | 18 ×10⁻⁶ cm/s | 115 µL/min/mg | 1 | 83% | 18 ×10⁻⁶ cm/s | 
c1ccc(C2CCCN2c2ccnc3[nH]ncc23)cc1 (centres undefined) | 250 µM (≈ 66.1 µg/mL) | 74 ×10⁻⁶ cm/s | 222 µL/min/mg | 0.8 | 99% | 63 ×10⁻⁶ cm/s | 
c1ccc(C2CN(c3ccnc4[nH]ccc34)CCO2)cc1 (centres undefined) | 250 µM (≈ 69.8 µg/mL) |  |  |  |  |  | 
CCNC(=O)c1cc2c(-c3cccc(Cl)c3)ccnc2[nH]1 | 250 µM (≈ 74.9 µg/mL) |  |  |  |  |  | 
CCNC(=O)c1cc2c(N3CCCC3C(C)(C)OC)ccnc2[nH]1 (centres undefined) | 1000 µM (≈ 330 µg/mL) |  | 54 µL/min/mg |  | 56% |  | efflux ratio at 2 h, 2 µM [8]: 1.3; Papp A→B at 2 h, 2 µM [9]: 170 ×10⁻⁶ cm/s; Papp B→A at 2 h, 2 µM [10]: 225 ×10⁻⁶ cm/s
c1ccc(C2COCCN2c2ccnc3[nH]ncc23)cc1 (centres undefined) | 1000 µM (≈ 280 µg/mL) | 88 ×10⁻⁶ cm/s | 232 µL/min/mg | 0.8 | 97% | 73 ×10⁻⁶ cm/s | 
CCNC(=O)c1cc2c(N3CCCC3c3ccccn3)ccnc2[nH]1 (centres undefined) | 500 µM (≈ 168 µg/mL) | 15 ×10⁻⁶ cm/s | 48 µL/min/mg | 4.7 | 53% | 72 ×10⁻⁶ cm/s | 
O=C(NC1COC1)c1cc2c(N3CCCC3c3cccnc3)ccnc2[nH]1 (centres undefined) |  |  | 24 µL/min/mg |  | 29% |  | 
COC(C)(C)C1CCCN1c1ccnc2[nH]ncc12 (centres undefined) | 1000 µM (≈ 260 µg/mL) | 75 ×10⁻⁶ cm/s | 153 µL/min/mg | 0.9 | 92% | 66 ×10⁻⁶ cm/s | 
CNC(=O)c1cc2c(-c3cccc(Cl)c3)ccnc2[nH]1 | 250 µM (≈ 71.4 µg/mL) |  |  |  |  |  | 
c1cncc(C2CCCN2c2ccnc3[nH]ncc23)c1 (centres undefined) | 1000 µM (≈ 265 µg/mL) | 44 ×10⁻⁶ cm/s | 45 µL/min/mg | 1.1 | 54% | 50 ×10⁻⁶ cm/s | 
O=C(NC1CC1)c1cc2c(N3CCCC3c3ccccn3)ccnc2[nH]1 (centres undefined) | 250 µM (≈ 86.9 µg/mL) | 13 ×10⁻⁶ cm/s | 44 µL/min/mg | 5.7 | 50% | 76 ×10⁻⁶ cm/s | 
CCNC(=O)c1cc2c(N3CCOCC3C3CC3)ccnc2[nH]1 (centres undefined) | 500 µM (≈ 157 µg/mL) |  | 45 µL/min/mg |  | 48% |  | efflux ratio at 2 h, 2 µM [8]: 3.3; Papp A→B at 2 h, 2 µM [9]: 24 ×10⁻⁶ cm/s; Papp B→A at 2 h, 2 µM [10]: 79 ×10⁻⁶ cm/s
CN(C)C(=O)c1cc2c(-c3cccc(Cl)c3)ccnc2[nH]1 | 250 µM (≈ 74.9 µg/mL) |  |  |  |  |  | 
CCOC(=O)c1ccnc2[nH]ccc12 | 2000 µM (≈ 380 µg/mL) |  |  |  |  |  | 
CCNC(=O)c1cc2c(N3CCOCC3c3ccccc3)ccnc2[nH]1 (centres undefined) | 250 µM (≈ 87.6 µg/mL) |  | 156 µL/min/mg |  | 90% |  | efflux ratio at 2 h, 2 µM [8]: 1.4; Papp A→B at 2 h, 2 µM [9]: 63 ×10⁻⁶ cm/s; Papp B→A at 2 h, 2 µM [10]: 89 ×10⁻⁶ cm/s
CCNC(=O)c1cc2c(N3CCCC3c3ccccc3)ccnc2[nH]1 (centres undefined) | 100 µM (≈ 33.4 µg/mL) | 41 ×10⁻⁶ cm/s | 130 µL/min/mg | 1.6 | 85% | 63 ×10⁻⁶ cm/s | 
CCNC(=O)c1cc2c(N3CCOC[C@@H]3C)ccnc2[nH]1 | 500 µM (≈ 144 µg/mL) |  | 36 µL/min/mg |  | 43% |  | Papp A→B at 2 h, 2 µM [9]: 148 ×10⁻⁶ cm/s; Papp B→A at 2 h, 2 µM [10]: 209 ×10⁻⁶ cm/s; ΔTm [7]: 21 °C
CCNC(=O)c1cc2c(N3CCOC[C@@H]3C)ccnc2n1C |  |  |  |  |  |  | inhibition [11]: inactive
O=C(NC1COC1)c1cc2c(N3CCCC3c3ccccn3)ccnc2[nH]1 (centres undefined) | 250 µM (≈ 90.9 µg/mL) | 7 ×10⁻⁶ cm/s | 25 µL/min/mg | 6.7 | 33% | 46 ×10⁻⁶ cm/s | 
